Data taken from the supplement of paper PMC11061612.

Legend:
MK-2206 = compound: NC1(c2ccc(-c3nc4ccn5c(=O)[nH]nc5c4cc3-c3ccccc3)cc2)CCC1 [MK-2206]; settings: max 10 µM
In short: (§1)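 Viability was measured with CellTiter-Glo 2.0 luminescence after 72 hours of dosing at a final DMSO of typically 0.2%, and scaled between blank-well and DMSO-well means. Beforehand, cancer cell lines sat 24 hours at 37°C and 5% CO2 in 1536-well plates in 7.5 μl DMEM/F12 or RPMI with 10% FBS. A non-linear mixed effects model fitted two-parameter logistic curves to the dose responses. The single-agent IC50 comes from these fits.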

AZD2811 = compound: CCN(CCO)CCCOc1ccc2c(Nc3cc(CC(=O)Nc4cccc(F)c4)[nH]n3)ncnc2c1 [AZD2811]; settings: max 1 µM
In short: as §1

AZD5991 = compound: Cc1c2c(nn1C)CSCc1cc(n(C)n1)CSc1cc(c3ccccc3c1)OCCCc1c(C(=O)O)n(C)c3c-2c(Cl)ccc13 [AZD5991]; settings: max 1 µM
In short: as §1

Gefitinib = compound: COc1cc2ncnc(Nc3ccc(F)c(Cl)c3)c2cc1OCCCN1CCOCC1 [Gefitinib]; settings: max 10 µM
In short: as §1

AZD5153 = compound: COc1nnc2ccc(N3CCC(c4ccc(OCCN5CCN(C)C(=O)[C@H]5C)cc4)CC3)nn12 [AZD5153]; settings: max 1 µM
In short: as §1

SN-38 = compound: CCc1c2c(nc3ccc(O)cc13)-c1cc3c(c(=O)n1C2)COC(=O)[C@]3(O)CC [SN-38]; settings: max 0.3 µM
In short: as §1

Lapatinib = compound: CS(=O)(=O)CCNCc1ccc(-c2ccc3ncnc(Nc4ccc(OCc5cccc(F)c5)c(Cl)c4)c3c2)o1 [Lapatinib]; settings: max 10 µM
In short: as §1

Prexasertib = compound: COc1cccc(OCCCN)c1-c1cc(Nc2cnc(C#N)cn2)n[nH]1 [Prexasertib]; settings: max 1 µM
In short: as §1

Doxorubicin = compound: COc1cccc2c1C(=O)c1c(O)c3c(c(O)c1C2=O)C[C@@](O)(C(=O)CO)C[C@@H]3O[C@H]1C[C@H](N)[C@H](O)[C@H](C)O1 [Doxorubicin]; settings: max 1 µM
In short: as §1

AZD7648 = compound: Cc1cc2ncnn2cc1Nc1ncc2c(n1)n(C1CCOCC1)c(=O)n2C [AZD7648]; settings: max 10 µM
In short: as §1

[1] = compound: O=C(Nc1ccc2[nH]nc(-c3ccncc3)c2c1)[C@@H]1CCN(CC(=O)N2CCN(c3ccc(-c4ncccn4)cc3)CC2)C1; settings: max 5 µM
In short: as §1

SRA737 = compound: N#Cc1cnc(Nc2cc(NC[C@H]3CNCCO3)c(C(F)(F)F)cn2)cn1 [SRA737]; settings: max 10 µM
In short: as §1

Gemcitabine = compound: Nc1ccn([C@@H]2O[C@H](CO)[C@@H](O)C2(F)F)c(=O)n1 [Gemcitabine]; settings: max 0.3 µM
In short: as §1

5-Fluorouracil = compound: O=c1[nH]cc(F)c(=O)[nH]1 [5-Fluorouracil]; settings: max 20 µM
In short: as §1

Venetoclax = compound: CC1(C)CCC(CN2CCN(c3ccc(C(=O)NS(=O)(=O)c4ccc(NCC5CCOCC5)c([N+](=O)[O-])c4)c(Oc4cnc5[nH]ccc5c4)c3)CC2)=C(c2ccc(Cl)cc2)C1 [Venetoclax]; settings: max 1 µM
In short: as §1

Dasatinib = compound: CC1=C(C(=CC=C1)Cl)NC(=O)C2=CN=C(S2)NC3=CC(=NC(=N3)C)N4CCN(CC4)CCO [Dasatinib]; settings: max 2 µM
In short: as §1

Crizotinib = compound: C[C@@H](Oc1cc(-c2cnn(C3CCNCC3)c2)cnc1N)c1c(Cl)ccc(F)c1Cl [Crizotinib]; settings: max 10 µM
In short: as §1

Paclitaxel = compound: CC(=O)O[C@H]1C(=O)[C@@]2(C)[C@H]([C@H](OC(=O)c3ccccc3)[C@]3(O)C[C@H](OC(=O)[C@H](O)[C@@H](NC(=O)c4ccccc4)c4ccccc4)C(C)=C1C3(C)C)[C@]1(OC(C)=O)CO[C@@H]1C[C@@H]2O [Paclitaxel]; settings: max 3 µM
In short: as §1

AZD6738 = compound: C[C@@H]1COCCN1C2=NC(=NC(=C2)C3(CC3)[S@](=N)(=O)C)C4=C5C=CNC5=NC=C4 [AZD6738]; settings: max 10 µM
In short: as §1

Taselisib = compound: Cc1nc(-c2cn3c(n2)-c2ccc(-c4cnn(C(C)(C)C(N)=O)c4)cc2OCC3)n(C(C)C)n1 [Taselisib]; settings: max 10 µM
In short: as §1

Etoposide = compound: COc1cc([C@@H]2c3cc4c(cc3[C@@H](O[C@@H]3O[C@@H]5CO[C@@H](C)O[C@H]5[C@H](O)[C@H]3O)[C@H]3COC(=O)[C@H]23)OCO4)cc(OC)c1O [Etoposide]; settings: max 10 µM
In short: as §1

AZD4320 = compound: CN(CC[C@H](CSC1=CC=CC=C1)NC2=C(C=C(C=C2)S(=O)(=O)NC(=O)C3=CC=C(C=C3)N4CCC(CC4)[C@H](C5=CC=CC=C5C6=CC=C(C=C6)Cl)O)S(=O)(=O)C(F)(F)F)CCO [AZD4320]; settings: max 1 µM
In short: as §1

AZD0156 = compound: CN(C)CCCOc1ccc(-c2ccc3ncc4c(c3c2)n(C2CCOCC2)c(=O)n4C)cn1 [AZD0156]; settings: max 3 µM
In short: as §1

Savolitinib = compound: C[C@@H](c1ccc2nccn2c1)n1nnc2ncc(-c3cnn(C)c3)nc21 [Savolitinib]; settings: max 1 µM
In short: as §1

Selumetinib = compound: Cn1cnc2c(F)c(Nc3ccc(Br)cc3Cl)c(C(=O)NOCCO)cc21 [Selumetinib]; settings: max 10 µM
In short: as §1

AZD5363 = compound: C1CN(CCC1(C(=O)N[C@@H](CCO)C2=CC=C(C=C2)Cl)N)C3=NC=NC4=C3C=CN4 [AZD5363]; settings: max 10 µM
In short: as §1

Alisertib = compound: COc1cc(Nc2ncc3c(n2)-c2ccc(Cl)cc2C(c2c(F)cccc2OC)=NC3)ccc1C(=O)O [Alisertib]; settings: max 10 µM
In short: as §1

SG3199 = compound: CC1=CN2[C@@H](C1)C=NC3=CC(=C(C=C3C2=O)OC)OCCCCCOC4=C(C=C5C(=C4)N=C[C@@H]6CC(=CN6C5=O)C)OC [SG3199]; settings: max 0.001 µM
In short: as §1

AZD1390 = compound: CC(C)n1c(=O)n(C)c2cnc3cc(F)c(-c4ccc(OCCCN5CCCCC5)nc4)cc3c21 [AZD1390]; settings: max 0.3 µM
In short: as §1

Trametinib = compound: CC(=O)Nc1cccc(-n2c(=O)n(C3CC3)c(=O)c3c(Nc4ccc(I)cc4F)n(C)c(=O)c(C)c32)c1 [Trametinib]; settings: max 1 µM
In short: as §1

Palbociclib = compound: CC(=O)c1c(C)c2cnc(Nc3ccc(N4CCNCC4)cn3)nc2n(C2CCCC2)c1=O [Palbociclib]; settings: max 10 µM
In short: as §1

AZD8186 = compound: C[C@@H](Nc1cc(F)cc(F)c1)c1cc(C(=O)N(C)C)cc2c(=O)cc(N3CCOCC3)oc12 [AZD8186]; settings: max 10 µM
In short: as §1

Carboplatin = compound: C1CC(C1)(C(=O)[O-])C(=O)[O-].N.N.[Pt+2] [Carboplatin]; settings: max 10 µM
In short: as §1

AZD1775 = compound: C=CCn1c(=O)c2cnc(Nc3ccc(N4CCN(C)CC4)cc3)nc2n1-c1cccc(C(C)(C)O)n1 [AZD1775]; settings: max 3 µM
In short: as §1

Olaparib = compound: O=C(c1cc(Cc2n[nH]c(=O)c3ccccc23)ccc1F)N1CCN(C(=O)C2CC2)CC1 [Olaparib]; settings: max 10 µM
In short: as §1

Cell Line | IC50, cell viability 72 h (MK-2206) | IC50, cell viability 72 h (AZD2811) | IC50, cell viability 72 h (AZD5991) | IC50, cell viability 72 h (Gefitinib) | IC50, cell viability 72 h (AZD5153) | IC50, cell viability 72 h (SN-38) | IC50, cell viability 72 h (Lapatinib) | IC50, cell viability 72 h (Prexasertib) | IC50, cell viability 72 h (Doxorubicin) | IC50, cell viability 72 h (AZD7648) | IC50, cell viability 72 h [1] | IC50, cell viability 72 h (SRA737) | IC50, cell viability 72 h (Gemcitabine) | IC50, cell viability 72 h (5-Fluorouracil) | IC50, cell viability 72 h (Venetoclax) | IC50, cell viability 72 h (Dasatinib) | IC50, cell viability 72 h (Crizotinib) | IC50, cell viability 72 h (Paclitaxel) | IC50, cell viability 72 h (AZD6738) | IC50, cell viability 72 h (Taselisib) | IC50, cell viability 72 h (Etoposide) | IC50, cell viability 72 h (AZD4320) | IC50, cell viability 72 h (AZD0156) | IC50, cell viability 72 h (Savolitinib) | IC50, cell viability 72 h (Selumetinib) | IC50, cell viability 72 h (AZD5363) | IC50, cell viability 72 h (Alisertib) | IC50, cell viability 72 h (SG3199) | IC50, cell viability 72 h (AZD1390) | IC50, cell viability 72 h (Trametinib) | IC50, cell viability 72 h (Palbociclib) | IC50, cell viability 72 h (AZD8186) | IC50, cell viability 72 h (Carboplatin) | IC50, cell viability 72 h (AZD1775) | IC50, cell viability 72 h (Olaparib)
A673 (Ewing's Sarcoma) | > 10 µM | 0.132 µM | > 1 µM | > 10 µM | > 1 µM | 0.00259 µM | > 10 µM | 0.0344 µM | 0.284 µM | > 10 µM | > 5 µM | > 10 µM | 0.0178 µM | > 20 µM | > 1 µM | > 2 µM | > 10 µM | 0.00699 µM | 1.98 µM | 6.72 µM | 2.27 µM | 0.169 µM | > 3 µM | > 1 µM | > 10 µM | > 10 µM | 1.46 µM | > 0.001 µM | > 0.3 µM | > 1 µM | > 10 µM | > 10 µM | > 10 µM | > 3 µM | > 10 µM
BE-13 (T-Lymphoblastic Leukemia) | 7.6 µM | 0.0441 µM | > 1 µM | > 10 µM | 0.312 µM | 0.0168 µM | 8.67 µM | 0.0201 µM | 0.326 µM | > 10 µM | > 5 µM | 3.73 µM | 0.0899 µM | > 20 µM | > 1 µM | 0.809 µM | 0.585 µM | 0.0141 µM | 4.78 µM | > 10 µM | 2.34 µM | 0.0999 µM | > 3 µM | > 1 µM | > 10 µM | > 10 µM | 0.155 µM | > 0.001 µM | > 0.3 µM | > 1 µM | 3.38 µM | > 10 µM | > 10 µM | 0.161 µM | > 10 µM
